In this assay the target is T1, human kinase Mps-1 (Homo sapiens, UniProt P33981).
T1 construct: N-terminally GST-tagged human full length recombinant Mps-1 kinase; GST (N); purchased Invitrogen, Karslruhe, Germany PV4071
T1 sequence (P33981 1-857): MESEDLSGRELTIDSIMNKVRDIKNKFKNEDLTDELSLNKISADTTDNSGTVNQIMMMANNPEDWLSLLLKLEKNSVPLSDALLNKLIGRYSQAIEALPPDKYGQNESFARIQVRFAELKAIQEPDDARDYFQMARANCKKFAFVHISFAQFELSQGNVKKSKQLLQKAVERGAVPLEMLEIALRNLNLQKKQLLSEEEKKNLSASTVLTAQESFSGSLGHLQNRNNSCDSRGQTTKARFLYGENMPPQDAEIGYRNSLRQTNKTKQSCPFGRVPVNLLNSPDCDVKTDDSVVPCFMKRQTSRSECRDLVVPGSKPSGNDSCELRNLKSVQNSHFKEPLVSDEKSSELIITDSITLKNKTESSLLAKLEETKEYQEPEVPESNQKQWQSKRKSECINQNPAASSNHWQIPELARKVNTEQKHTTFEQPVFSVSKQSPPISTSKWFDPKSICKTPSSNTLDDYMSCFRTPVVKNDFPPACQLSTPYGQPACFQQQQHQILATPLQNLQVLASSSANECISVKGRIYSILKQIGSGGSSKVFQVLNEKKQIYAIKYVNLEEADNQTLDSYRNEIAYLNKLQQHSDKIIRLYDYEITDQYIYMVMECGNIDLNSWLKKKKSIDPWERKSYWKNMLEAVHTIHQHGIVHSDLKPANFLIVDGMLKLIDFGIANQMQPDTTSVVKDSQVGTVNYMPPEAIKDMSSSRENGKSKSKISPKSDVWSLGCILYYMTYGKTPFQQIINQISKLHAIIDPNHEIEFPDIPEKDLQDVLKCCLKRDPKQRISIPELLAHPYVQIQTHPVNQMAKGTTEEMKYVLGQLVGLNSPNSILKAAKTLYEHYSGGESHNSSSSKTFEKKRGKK
The experiment in a line: Mps-1 kinase assay (TR-FRET). Type of assay: biochemical. The settings on record: N-terminally GST-tagged human full length recombinant Mps-1; 10 μM ATP; 1 μM peptide substrate; 60 min at 22° C. In short, it runs like this: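 Inhibition of Mps-1 (N-terminal GST fusion, full length) toward a biotinylated peptide is read as Eu-to-XLent TR-FRET. Enzyme level, around 1 nM final, follows lot activity.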
A general note: In TR-FRET formats the signal depends on donor and acceptor labels being close together.

`CNC(=O)c1ccc(-c2cnc3c(NCCC(F)(F)F)cc(-c4ccc(C(=O)NC5CC5)c(C)c4)cn23)cc1C` [Example 158, 4-{6-[4-(cyclopropylcarbamoyl)-3-methylphenyl]-8-[(3,3,3-trifluoropropyl)amino]imidazo[1,2-a]pyridin-3-yl}-N,2-dimethylbenzamide]: the IC50 (usually the concentration that inhibits the measured activity by half) was determined as 6.2 nM.

Take `CCNC(=O)c1ccc(-c2cnc3c(NCCC(F)(F)F)cc(Oc4cccc(O)c4)cn23)cc1C` [Example 138, N-ethyl-4-{6-(3-hydroxyphenoxy)-8-[(3,3,3-trifluoropropyl)amino]imidazo[1,2-a]pyridin-3-yl}-2-methylbenzamide]: the IC50 worked out at 1.3 nM.

On to `Cc1cc(-c2cnc3c(NCCC(F)(F)F)cc(Sc4cccc(F)c4)cn23)ccc1C(=O)NC1CC1` [Example 3-5], for which the IC50 is 0.8 nM.

For `Cc1cc(-c2cnc3c(NCCC(F)(F)F)cc(Oc4cccc(Cl)c4)cn23)ccc1C(=O)NC1CC1F` (single isomer, unassigned) [Example 39 (ent.-A or A), 4-{6-(3-chlorophenoxy)-8-[(3,3,3-trifluoropropyl)amino]imidazo[1,2-a]pyridin-3-yl}-N-{[1R,2R) or (1S,2S)]-2-fluorocyclopropyl}-2-methylbenzamide], the IC50 was 4.9 nM.

For the molecule `CNC(=O)c1ccc(-c2cnc3c(NCCC(F)(F)F)cc(CCO)cn23)cc1C` [Example 142, 4-{6-(2-Hydroxyethyl)-8-[(3,3,3-trifluoropropyl)amino]imidazo[1,2-a]pyridin-3-yl}-N,2-dimethylbenzamide], the IC50 is 244 nM.

On to `CNC(=O)c1ccc(-c2cnc3c(NCC4CCOCC4)cc(Oc4ccc(OC)c(F)c4)cn23)cc1C` [Example 121, 4-{6-(3-Fluoro-4-methoxyphenoxy)-8-[(tetrahydro-2H-pyran-4-ylmethyl)amino]imidazo[1,2-a]pyridin-3-yl}-N,2-dimethylbenzamide], for which the IC50 was 1.5 nM.

For the molecule `CNC(=O)c1ccc(-c2cnc3c(NCCC(F)(F)F)cc(Oc4cccc(F)c4F)cn23)cc1C` [Example 72, 4-{6-(2,3-Difluorophenoxy)-8-[(3,3,3-trifluoropropyl)amino]imidazo[1,2-a]pyridin-3-yl}-N,2-dimethylbenzamide], the IC50 was determined as 0.6 nM.

Turning to `Cc1cc(-c2cnc3c(NCCC(F)(F)F)cc(Sc4ccccc4)cn23)ccc1C(=O)NC1CC1` [Example 3-3, N-cyclopropyl-2-methyl-4-{6-(phenylsulfanyl)-8-[(3,3,3-trifluoropropyl)amino]imidazo[1,2-a]pyridin-3-yl} benzamide], the IC50 was 0.5 nM.

Take `Cc1cc(-c2cnc3c(NCCC(F)(F)F)cc(Sc4ccccc4O)cn23)ccc1C(=O)NC1CC1` [Example 3-6, N-cyclopropyl-4-{6-[(2-hydroxyphenyl)sulfanyl]-8-[(3,3,3-trifluoropropyl)amino]imidazo[1,2-a]pyridin-3-yl}-2-methylbenzamide]: the IC50 was 0.4 nM.

With `Cc1cc(-c2cnc3c(NCCC(F)(F)F)cc(Oc4cccc(F)c4)cn23)ccc1C(=O)NC1(C2CC2)CC1` [Example 49, N-[1,1′-bi(cyclopropyl)-1-0]-4-{6-(3-fluorophenoxy)-8-[(3,3,3-trifluoropropyl)amino]imidazo[1,2-a]pyridin-3-yl}-2-methylbenzamide], the IC50 was 97.6 nM.

Regarding `Cc1cc(-c2cnc3c(NCCC(F)(F)F)cc(Oc4cccc(OC(F)(F)F)c4)cn23)ccc1C(=O)NC1CC1` [Example 74, N-cyclopropyl-2-methyl-4-{6-[3-(trifluoromethoxy)phenoxy]-8-[(3,3,3-trifluoropropyl)amino]imidazo[1,2-a]pyridin-3-yl}benzamide], the IC50 came to 6.8 nM.

Take `Cc1cc(-c2cc(NCC3CCOCC3)c3ncc(-c4ccc(C(=O)NC5CC5)c(C)c4)n3c2)ccc1C(=O)NC1CC1` [Example 9, 4,4′-{8-[(Tetrahydro-2H-pyran-4-ylmethyl)amino]imidazo[1,2-a]pyridine-3,6-diyl}bis(N-cyclopropyl-2-methylbenzamide)]: the IC50 is 0.4 nM.

In the case of `Cc1cc(-c2cnc3c(NCCC(F)(F)F)cc(Oc4cccc(Cl)c4)cn23)ccc1C(=O)N[C@@H]1C[C@H]1F` (relative stereo) [Example 39 (rac.-A), 4-{6-(3-chlorophenoxy)-8-[(3,3,3-trifluoropropyl)amino]imidazo[1,2-a]pyridin-3-yl}-N-[rel-(1R,2R)-2-fluorocyclopropyl]-2-methylbenzamide], the IC50 was found to be 3.1 nM.

Turning to `Cc1cc(-c2cnc3c(NCCC(F)(F)F)cc(-c4ccccc4O)cn23)ccc1C(=O)N[C@H]1C[C@@H]1F` (relative stereo) [Example 135, N-[rel-(1S,2S)-2-fluorocyclopropyl]-4-{6-(2-hydroxyphenyl)-8-[(3,3,3-trifluoropropyl)amino]imidazo[1,2-a]pyridin-3-yl}-2-methylbenzamide], the IC50 worked out at 8.4 nM.

As for `Cc1cc(-c2cnc3c(NCCC(F)(F)F)cc(-c4ccccc4CO)cn23)ccc1C(=O)NC1CC1` [Example 2-1, N-cyclopropyl-4-{6-[2-(hydroxymethyl)phenyl]-8-[(3,3,3-trifluoropropyl)amino]imidazo[1,2-a]pyridin-3-yl}-2-methylbenzamide], the IC50 was found to be 0.9 nM.

With `Cc1cc(-c2cnc3c(NCCC(F)(F)F)cc(Oc4ccc(OCc5ccccc5)cc4)cn23)ccc1C(=O)NC1CC1` [Example 109, 4-{6-[4-(benzyloxy)phenoxy]-8-[(3,3,3-trifluoropropyl)amino]imidazo[1,2-a]pyridin-3-yl}-N-cyclopropyl-2-methylbenzamide], the IC50 is 17.8 nM.

For the molecule `CCNC(=O)c1ccc(-c2cnc3c(NCCC(F)(F)F)cc(C#CCO)cn23)cc1C` [Example 21, N-ethyl-4-{6-(3-hydroxyprop-1-yn-1-yl)-8-[(3,3,3-trifluoropropyl)amino]imidazo[1,2-a]pyridin-3-yl}-2-methylbenzamide], the IC50 is 33.7 nM.

`COCCNc1cc(Oc2cccc(F)c2)cn2c(-c3ccc(C(=O)NC4CC4)c(C)c3)cnc12` [Example 169, N-cyclopropyl-4-{6-(3-fluorophenoxy)-8-[(2-methoxyethyl)amino]imidazo[1,2-a]pyridin-3-yl}-2-methylbenzamide]: the IC50 amounted to 21.7 nM.

`CCc1cc(NCCC(F)(F)F)c2ncc(-c3ccc(C(=O)NC)c(C)c3)n2c1` [Example 100, 4-{6-Ethyl-8-[(3,3,3-trifluoropropyl)amino]imidazo[1,2-a]pyridin-3-yl}-N,2-dimethylbenzamide]: the IC50 was 106 nM.

For the molecule `Cc1cc(-c2cnc3c(NCCC(F)(F)F)cc(-c4ccc(C(=O)NC5(C)CC5)c(C)c4)cn23)ccc1C(=O)NC1CC1` [Example 149, 4-{3-[4-(cyclopropylcarbamoyl)-3-methylphenyl]-8-[(3,3,3-trifluoropropyl)amino]imidazo[1,2-a]pyridin-6-yl}-2-methyl-N-(1-methylcyclopropyl)benzamide], the IC50 was determined as 3 nM.

For the molecule `CCc1cc(NCCC(F)(F)F)c2ncc(-c3ccc(C(=O)NC4CC4)c(C)c3)n2c1` [Example 99], the IC50 is 13.3 nM.

In the case of `COCCNc1cc(Oc2cc(F)ccc2C)cn2c(-c3ccc(C(=O)NC4CC4)c(C)c3)cnc12` [Example 172], the IC50 worked out at 77.8 nM.

Take `C/C=C/c1cc(NCCC(F)(F)F)c2ncc(-c3ccc(C(=O)N[C@H]4C[C@@H]4C)c(C)c3)n2c1` (relative stereo) [Example 117, 2-Methyl-N-[rel-(1S,2S)-2-methylcyclopropyl]-4-{6-[(1E)-prop-1-en-1-yl]-8-[(3,3,3-trifluoropropyl)amino]imidazo[1,2-a]pyridin-3-yl}benzamide]: the IC50 came to 9.4 nM.

Take `CNC(=O)c1ccc(-c2cnc3c(NCCC(F)(F)F)cc(CCCO)cn23)cc1C` [Example 126, 4-{6-(3-hydroxypropyl)-8-[(3,3,3-trifluoropropyl)amino]imidazo[1,2-a]pyridin-3-yl}-N,2-dimethylbenzamide]: the IC50 was 146 nM.

Turning to `Cc1ccc(F)cc1Oc1cc(NCCC(F)(F)F)c2ncc(-c3ccc(C(=O)NC4(C#N)CC4)c(C)c3)n2c1` [Example 28, N-(1-cyanocyclopropyl)-4-{6-(5-fluoro-2-methylphenoxy)-8-[(3,3,3-trifluoropropyl)amino]imidazo[1,2-a]pyridin-3-yl}-2-methylbenzamide], the IC50 amounted to 13.9 nM.

Consider `CCNC(=O)c1ccc(-c2cnc3c(NCCC(F)(F)F)cc(/C=C\CO)cn23)cc1C` [Example 120, N-ethyl-4-{6-[(12)-3-hydroxyprop-1-en-1-yl]-8-[(3,3,3-trifluoropropyl)amino]imidazo[1,2-a]pyridin-3-yl}-2-methylbenzamide], for which the IC50 turned out to be 42.2 nM.

(Values after patent US20140255392A1 (BAYER INTELLECTUAL PROPERTY GMBH, priority 2011, published 2014).)
